Experimental data as given in patent US20230365592A1 (Agios Pharmaceuticals, Inc., priority 2022, published 2023).

What follows are compounds tested against T1, human PAH with the R408W mutation (Homo sapiens, UniProt P00439, R408W) (assay: Cell Based Phenylalanine Flux Assay). Conditions: A375 cells expressing R408W PAH; 24 hrs with compound, then 20 µM sepiapterin and 800 µM 13C9,15N-Phenylalanine for 4 hours; 13C-Tyrosine by LC-MS; average where tested multiple times; read-out: AC50.
T1 construct: expressed in transfected cells
T1 sequence (P00439 1-452 R408W): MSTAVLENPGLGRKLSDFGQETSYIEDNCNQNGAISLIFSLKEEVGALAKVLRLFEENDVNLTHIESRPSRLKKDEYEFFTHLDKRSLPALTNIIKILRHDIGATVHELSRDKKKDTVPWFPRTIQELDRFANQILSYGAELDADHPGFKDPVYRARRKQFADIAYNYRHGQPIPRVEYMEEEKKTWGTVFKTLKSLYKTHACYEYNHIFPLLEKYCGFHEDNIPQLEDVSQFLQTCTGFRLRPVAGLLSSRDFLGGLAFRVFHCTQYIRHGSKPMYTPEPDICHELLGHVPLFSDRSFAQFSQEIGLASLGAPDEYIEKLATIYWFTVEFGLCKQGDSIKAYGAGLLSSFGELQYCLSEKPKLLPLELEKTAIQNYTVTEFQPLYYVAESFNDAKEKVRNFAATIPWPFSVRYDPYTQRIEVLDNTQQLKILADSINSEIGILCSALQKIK
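Also: after compound treatment, cells received sepiapterin plus isotope-labelled Phenylalanine for 4 hours, then labelled Tyrosine in the medium was quantified, 10-point 2-fold dilution series run in duplicate.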

First: O=C(Cc1cnn2ccccc12)N1CCc2[nH]cnc2C1c1cc2ccccn2n1 (stereo not shown)
Second: O=C(C1CC1)N1CCc2[nH]cnc2C1c1cc2ccccn2n1 (stereo not shown)
The AC50 of the first is higher: greater than 5 µM for the first, 1 to 5 µM for the second.

First: Cc1cccc2cc(C3c4nc[nH]c4CCN3C(=O)c3nc(C(F)(F)F)nn3C)nn12 (stereo not shown) [listing 1 of 2 here]
Second: Cc1nc(C(=O)N2CCc3[nH]cnc3C2c2cc3cccc(C)n3n2)n(C)n1 (stereo not shown)
The AC50 of the first is higher: greater than 5 µM for the first, 1 to 5 µM for the second.

Compared with Cn1cc(-c2nnc(C(=O)N3CCc4[nH]cnc4C3c3cc4cc(C(F)(F)F)ccn4n3)o2)cn1 (stereo not shown) [listing 1 of 2 here], Cn1cc(-c2nnc(C(=O)N3CCc4[nH]cnc4C3c3cc4cc(F)ccn4n3)o2)cn1 (stereo not shown) is lower in AC50: greater than 5 µM for the first, 1 to 5 µM for the second.

First: CC(C)(F)c1nnc(C(=O)N2CCc3[nH]cnc3C2c2cc3cc(F)ccn3n2)o1 (stereo not shown)
Second: CC(C)(C)c1nnc(C(=O)N2CCc3[nH]cnc3C2c2cc3cc(F)ccn3n2)o1 (stereo not shown) [listing 1 of 2 here]
The AC50 of the first is lower: 1 to 5 µM for the first, greater than 5 µM for the second.

Cc1ccn2nc(C3c4nc[nH]c4CCN3C(=O)c3nnc(C(C)(C)F)o3)cc2c1 (stereo not shown) [listing 1 of 2 here] and Cc1ccn2nc(C3c4nc[nH]c4CCN3C(=O)c3nnc(C(C)(C)O)o3)cc2c1 (stereo not shown) [listing 1 of 2 here] cannot be ordered by AC50: greater than 5 µM for the first, greater than 5 µM for the second.

First: O=C(c1ccn(-c2ccccn2)n1)N1CCc2[nH]cnc2C1c1cc2c(F)cccn2n1 (stereo not shown) [listing 1 of 2 here]
Second: Cc1cccn2nc(C3c4nc[nH]c4CCN3C(=O)c3ccn(-c4ccccn4)n3)cc12 (stereo not shown) [listing 1 of 2 here]
The AC50 of the first is lower: 1 to 5 µM for the first, greater than 5 µM for the second.

First: Cc1nnc(C(=O)N2CCc3[nH]cnc3C2c2cc3c(F)cccn3n2)o1 (stereo not shown) [listing 1 of 2 here]
Second: Cc1nnc(C(=O)N2CCc3[nH]cnc3C2c2cc3cc(F)ccn3n2)o1 (stereo not shown) [listing 1 of 2 here]
The AC50 of the first is higher: greater than 5 µM for the first, 1 to 5 µM for the second.

Cn1ccc(-c2nnc(C(=O)N3CCc4[nH]cnc4C3c3cc4cc(F)ccn4n3)o2)n1 (stereo not shown) [listing 1 of 2 here] and O=C(c1nnc(-c2ccccn2)o1)N1CCc2[nH]cnc2C1c1cc2cc(F)ccn2n1 (stereo not shown) [listing 1 of 2 here] cannot be ordered by AC50: greater than 5 µM for the first, greater than 5 µM for the second.

Cc1nnc(C(=O)N2CCc3[nH]cnc3C2c2cc3cccc(Cl)n3n2)o1 (stereo not shown) [listing 1 of 2 here] and Cc1nnc(C(=O)N2CCc3[nH]cnc3C2c2cc3cccc(C)n3n2)o1 (stereo not shown) fall in the same range of AC50: 1 to 5 µM for the first, 1 to 5 µM for the second.

O=C(c1nnc(-c2ccccn2)o1)N1CCc2[nH]cnc2C1c1cc2cc(C(F)(F)F)ccn2n1 (stereo not shown) [listing 1 of 2 here] and O=C(c1nnc(-c2ccccn2)o1)N1CCc2[nH]cnc2C1c1cc2cc(F)ccn2n1 (stereo not shown) [listing 2 of 2 here] fall in the same range of AC50: 1 to 5 µM for the first, 1 to 5 µM for the second.

CC(C)(O)c1nnc(C(=O)N2CCc3[nH]cnc3C2c2cc3cccc(C(F)(F)F)n3n2)o1 (stereo not shown) [listing 1 of 2 here] and Cc1nnc(C(=O)N2CCc3[nH]cnc3C2c2cc3cccc(C(F)(F)F)n3n2)o1 (stereo not shown) fall in the same range of AC50: 1 to 5 µM for the first, 1 to 5 µM for the second.

Cc1ccn2nc(C3c4nc[nH]c4CCN3C(=O)c3nnc(C4CC4)o3)cc2c1 (stereo not shown) [listing 1 of 2 here] and O=C(c1nnc(C2CC2)o1)N1CCc2[nH]cnc2C1c1cc2cc(C(F)(F)F)ccn2n1 (stereo not shown) fall in the same range of AC50: 1 to 5 µM for the first, 1 to 5 µM for the second.

Cc1ccn2nc(C3c4nc[nH]c4CCN3C(=O)c3nnc(C(C)(C)C)o3)cc2c1 (stereo not shown) [listing 1 of 2 here] and Cc1ccn2nc(C3c4nc[nH]c4CCN3C(=O)c3nnc(C(C)(C)F)o3)cc2c1 (stereo not shown) [listing 2 of 2 here] fall in the same range of AC50: 1 to 5 µM for the first, 1 to 5 µM for the second.

First: Cc1cccn2nc(C3c4nc[nH]c4CCN3C(=O)c3cc(C(C)(C)C)nn3C)cc12 (stereo not shown) [listing 1 of 2 here]
Second: Cn1nc(C(C)(C)C)cc1C(=O)N1CCc2[nH]cnc2C1c1cc2c(F)cccn2n1 (stereo not shown)
The AC50 of the first is higher: greater than 5 µM for the first, 1 to 5 µM for the second.

Cn1nc(C(C)(C)C)cc1C(=O)N1CCc2[nH]cnc2C1c1cc2ccccn2n1 (stereo not shown) [listing 1 of 2 here] and Cc1cccn2nc(C3c4nc[nH]c4CCN3C(=O)c3cc(C(C)(C)C)nn3C)cc12 (stereo not shown) [listing 2 of 2 here] fall in the same range of AC50: 1 to 5 µM for the first, 1 to 5 µM for the second.

Cn1ncnc1C(=O)N1CCc2[nH]cnc2C1c1cc2cccc(Cl)n2n1 (stereo not shown) [listing 1 of 2 here] and Cc1cccc2cc(C3c4nc[nH]c4CCN3C(=O)c3ncnn3C)nn12 (stereo not shown) fall in the same range of AC50: 1 to 5 µM for the first, 1 to 5 µM for the second.

O=C(Cc1nncs1)N1CCc2nc[nH]c2C1c1cc2ccccn2n1 (stereo not shown) and Cc1nc(C(=O)N2CCc3[nH]cnc3C2c2cc3ccccn3n2)n(C)n1 (stereo not shown) fall in the same range of AC50: 1 to 5 µM for the first, 1 to 5 µM for the second.

CN1CCN(c2nnc(C(=O)N3CCc4[nH]cnc4C3c3cc4c(F)cccn4n3)o2)CC1 (stereo not shown) and Cc1cccn2nc(C3c4nc[nH]c4CCN3C(=O)c3nnc(N4CCN(C)CC4)o3)cc12 (stereo not shown) fall in the same range of AC50: 1 to 5 µM for the first, 1 to 5 µM for the second.

Cc1cccc2cc(C3c4nc[nH]c4CCN3C(=O)c3nc(C(F)(F)F)nn3C)nn12 (stereo not shown) [listing 2 of 2 here] and Cc1cccc2cc(C3c4nc[nH]c4CCN3C(=O)c3nc(C(F)F)nn3C)nn12 (stereo not shown) fall in the same range of AC50: 1 to 5 µM for the first, 1 to 5 µM for the second.

Cc1cccc2cc(C3c4nc[nH]c4CCN3C(=O)c3nnc(-c4cncn4C)o3)nn12 (stereo not shown) and Cn1cncc1-c1nnc(C(=O)N2CCc3[nH]cnc3C2c2cc3cccc(Cl)n3n2)o1 (stereo not shown) fall in the same range of AC50: 1 to 5 µM for the first, 1 to 5 µM for the second.

Cn1cc(-c2nnc(C(=O)N3CCc4[nH]cnc4C3c3cc4cc(C(F)(F)F)ccn4n3)o2)cn1 (stereo not shown) [listing 2 of 2 here] and O=C(c1nnc(-c2ccccn2)o1)N1CCc2[nH]cnc2C1c1cc2cc(C(F)(F)F)ccn2n1 (stereo not shown) [listing 2 of 2 here] fall in the same range of AC50: 1 to 5 µM for the first, 1 to 5 µM for the second.

O=C(c1ccn(-c2ccccn2)n1)N1CCc2[nH]cnc2C1c1cc2c(F)cccn2n1 (stereo not shown) [listing 2 of 2 here] and Cc1cccn2nc(C3c4nc[nH]c4CCN3C(=O)c3ccn(-c4ccccn4)n3)cc12 (stereo not shown) [listing 2 of 2 here] fall in the same range of AC50: 1 to 5 µM for the first, 1 to 5 µM for the second.

Cc1nnc(C(=O)N2CCc3[nH]cnc3C2c2cc3c(F)cccn3n2)o1 (stereo not shown) [listing 2 of 2 here] and Cc1nnc(C(=O)N2CCc3[nH]cnc3C2c2cc3cc(F)ccn3n2)o1 (stereo not shown) [listing 2 of 2 here] fall in the same range of AC50: 1 to 5 µM for the first, 1 to 5 µM for the second.

Compared with Cn1ccc(-c2nnc(C(=O)N3CCc4[nH]cnc4C3c3cc4cc(F)ccn4n3)o2)n1 (stereo not shown) [listing 2 of 2 here], CC(C)(O)c1nnc(C(=O)N2CCc3[nH]cnc3C2c2cc3cc(F)ccn3n2)o1 (stereo not shown) is higher in AC50: 1 to 5 µM for the first, greater than 5 µM for the second.

Cc1nnc(C(=O)N2CCc3[nH]cnc3C2c2cc3cccc(Cl)n3n2)o1 (stereo not shown) [listing 2 of 2 here] and CC(C)(O)c1nnc(C(=O)N2CCc3[nH]cnc3C2c2cc3cccc(Cl)n3n2)o1 (stereo not shown) fall in the same range of AC50: 1 to 5 µM for the first, 1 to 5 µM for the second.

CC(C)(O)c1nnc(C(=O)N2CCc3[nH]cnc3C2c2cc3c(C(F)(F)F)cccn3n2)o1 (stereo not shown) and CC(C)(O)c1nnc(C(=O)N2CCc3[nH]cnc3C2c2cc3ccc(C(F)(F)F)cn3n2)o1 (stereo not shown) fall in the same range of AC50: 1 to 5 µM for the first, 1 to 5 µM for the second.

Cc1ccn2nc(C3c4nc[nH]c4CCN3C(=O)c3nnc(C(C)(C)O)o3)cc2c1 (stereo not shown) [listing 2 of 2 here] and Cc1ccn2nc(C3c4nc[nH]c4CCN3C(=O)c3nnc(C(C)(C)C)o3)cc2c1 (stereo not shown) [listing 2 of 2 here] fall in the same range of AC50: 1 to 5 µM for the first, 1 to 5 µM for the second.

CC(C)(O)c1nnc(C(=O)N2CCc3[nH]cnc3C2c2cc3ccc(F)cn3n2)o1 (stereo not shown) and CC(C)(O)c1nnc(C(=O)N2CCc3[nH]cnc3C2c2cc3ccccn3n2)o1 (stereo not shown) fall in the same range of AC50: 1 to 5 µM for the first, 1 to 5 µM for the second.

CC(C)(O)c1nnc(C(=O)N2CCc3[nH]cnc3C2c2cc3cccc(C(F)(F)F)n3n2)o1 (stereo not shown) [listing 2 of 2 here] and CC(C)(C)c1nnc(C(=O)N2CCc3[nH]cnc3C2c2cc3ccc(C(F)(F)F)cn3n2)o1 (stereo not shown) fall in the same range of AC50: 1 to 5 µM for the first, 1 to 5 µM for the second.

First: Cc1ccn2nc(C3c4nc[nH]c4CCN3C(=O)c3nnc(C4CC4)o3)cc2c1 (stereo not shown) [listing 2 of 2 here]
Second: Cc1ccn2nc(C3c4nc[nH]c4CCN3C(=O)c3nnc(C)o3)cc2c1 (stereo not shown)
The AC50 of the first is lower: 1 to 5 µM for the first, greater than 5 µM for the second.

O=C(c1nnc(C2CC2)o1)N1CCc2[nH]cnc2C1c1cc2ccc(C(F)(F)F)cn2n1 (stereo not shown) and Cc1nnc(C(=O)N2CCc3[nH]cnc3C2c2cc3ccc(C(F)(F)F)cn3n2)o1 (stereo not shown) fall in the same range of AC50: 1 to 5 µM for the first, 1 to 5 µM for the second.

CC(C)(C)c1nnc(C(=O)N2CCc3[nH]cnc3C2c2cc3cc(F)ccn3n2)o1 (stereo not shown) [listing 2 of 2 here] and Cn1nc(C(F)F)nc1C(=O)N1CCc2[nH]cnc2C1c1cc2cc(F)ccn2n1 (stereo not shown) fall in the same range of AC50: 1 to 5 µM for the first, 1 to 5 µM for the second.

Cc1cccc2cc(C3c4nc[nH]c4CCN3C(=O)c3nc(C4CC4)nn3C)nn12 (stereo not shown) and Cn1ncnc1C(=O)N1CCc2[nH]cnc2C1c1cc2cccc(Cl)n2n1 (stereo not shown) [listing 2 of 2 here] fall in the same range of AC50: 1 to 5 µM for the first, 1 to 5 µM for the second.

Cn1nc(C(C)(C)C)cc1C(=O)N1CCc2[nH]cnc2C1c1cc2ccccn2n1 (stereo not shown) [listing 2 of 2 here] and COc1cccn2nc(C3c4nc[nH]c4CCN3C(=O)c3cc(C(C)(C)C)nn3C)cc12 (stereo not shown) fall in the same range of AC50: 1 to 5 µM for the first, 1 to 5 µM for the second.

O=C(c1ocnc1CC(F)F)N1CCc2[nH]cnc2C1c1cc2ccccn2n1 (stereo not shown) and O=C(c1ocnc1C(F)F)N1CCc2[nH]cnc2C1c1cc2cc(C(F)(F)F)ccn2n1 (stereo not shown) fall in the same range of AC50: 1 to 5 µM for the first, 1 to 5 µM for the second.
